# Test results from patent publication US4122184A, “Benzimidazole insecticides” (priority 1977, dated 1978).
# Legend:
# [1] = system: Asparagus Beetles Larvae; experiment: Field trial, stomach poison test; format: in vivo
# In short: (§1)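 Stomach-poison feeding test on leaves taken from the infested plant and treated by atomizer spraying at 10 psi or by dipping, then air-dried. Dishes hold five or ten insects, with one or two replicates per rate; reported values average mortality on a 0 to 9 rating scale, read at 24, 48 and 72 hours.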
# [2] = system: Fall Webworm; experiment: Field trial, stomach poison test; format: in vivo
# In short: as §1
# [3] = system: Bagworms; experiment: Field trial, contact poison test; format: in vivo; set-up: key: 0-9 scale: 0 = 0-10% mortality, 9 = 91-100% mortality
# Excerpt: Infested plants are placed in 6 oz. prescription bottles filled with water to keep them from wilting. Cellucotton is wrapped around the plant stem and squeezed into the bottle neck to prevent the insects from drowning.
# A DeVilbiss Special Atomizer (5004) is used at 10 psi to spray the test plant with different concentrations of compounds. The atomizer is held at arm's length to prevent blowing the insects off the host plant. After treating, the bottles are placed on a table covered with brown wrapping paper to catch the dead insects as they drop from the plant. The plants are spaced so the leaves or plants are not touching one another.
# The results are read at 24, 48, and 72 hours when applicable. The rating scale is 0 to 9 where 0 = 0-10 percent and 9 = 91-100 percent mortality.
# Using the above methods, field trials were carried out against species of 5 orders of insects. The results, which are summarized in the following tables, give the average mortality for the particular insect with a given benzimidazole for each concentration employed. […] These tables contain all results obtained during the summer trials.
# [4] = system: Tussock Moth; experiment: Field trial (first summer), stomach; format: in vivo; conditions: 750 ppm
# [5] = system: Zebra Caterpillar; experiment: Field trial (first summer), stomach; format: in vivo; conditions: 500 ppm
# [6] = system: American Roach; experiment: Field trial (first summer), contact; format: in vivo; conditions: 500 ppm
# [7] = system: Buffalo Tree Hopper; experiment: Field trial (first summer), contact; format: in vivo; conditions: 125 ppm
# [8] = system: German Roach; experiment: Field trial (first summer), contact; format: in vivo; conditions: 500 ppm
# [9] = system: Tussock Moth; experiment: Field trial (first summer), contact; format: in vivo; conditions: 750 ppm
# [10] = Acute dermal toxicity; format: in vivo; conditions: rabbit
# Excerpt: While the compounds of this invention resemble the organic phosphates in being toxic upon ingestion, they differ from the organic phosphates in having a low toxicity when applied to the skin. The following charts give the estimated acute oral and acute dermal toxicities of 2,6-bis(trifluoromethyl)-4-nitrobenzimidazole in several species of mammals.
# [11] = system: Mosquito Larvae; experiment: Mosquito larvae test (dip test); format: in vivo, Aedes aegypti; conditions: 48 h
# Method: Aedes aegypti larvae 5 days old are allowed to feed on fresh food for at least 3 hours previous to being placed on test. Larvae are then removed from the rearing pans by pouring on a 20 mesh screen, washing with deionized water, and pooling in a 6-inch white enameled sauce pan.
# Twenty larvae are placed in a 1 oz. paper cup containing 25 ml. of deionized water.
# Test chemicals are dissolved in a suitable solvent and pipetted under the surface of 225 ml. of deionized water in one pint wide-mouthed Mason jar test containers and stirred. A cup containing 20 larvae in 25 ml. of water is then added. […]
# Results are determined 48 hours later by counting the dead and moribund larvae. […] Moribund larvae are those that are capable of limited, or poorly coordinated, locomotion in a sluggish manner.
# Live larvae respond normally and actively.
# [12] = system: Two-Spotted Spider Mite (2-SSM); experiment: Miticide test, acute mortality, foliar spray; format: in vivo, Tetranychus urticae
# Method: Each 5 mg. sample of technical compound preweighed at Greenfield was dissolved in 2.5 ml. of acetone and diluted with 247.5 ml. of water containing a combination of […]
# (§2) The treated cuttings were stored in the greenhouse for 24 hours before evaluation under a binocular disecting microscope in the laboratory. In evaluating the results of the miticide test, each treated cutting was removed from the test tube, observed for live and dead mites at 14 × magnification, and returned immediately to the test tube. A scale of 0-9 was used as before.
# The test employing two-spotted spider mites was conducted in similar fashion except that the mites were maintained on squash seedlings or squash cuttings.
# [13] = system: Citrus Rust Mite (CRM); experiment: Miticide test, acute mortality, foliar spray; format: in vivo
# Method: Citrus cuttings were obtained and prepared for testing within 24 hours prior to inoculation with citrus rust mites. To prepare the cuttings, terminals of branches 12 to 14 inches in length were cut from temple orange trees, immediately placed in tap water and taken into the laboratory. Uniform hardwood cuttings, 3 to 4 inches in length, were cut from the branches, all but one hardened leaf was removed from the cuttings, and the remaining leaf was wiped clean with a cotton pad soaked in 10% ethanol solution. Each cutting was immediately placed in tap water in a test tube with the closed leaf extending out of the test tube. Then, a ring of melted lanolin was applied around the petiole to prevent migration of mites from the leaf. One cutting was used for each replicate.
# When the leaves were dry immediately after cleaning, citrus rust mites were transferred to the test leaves by cutting a heavily infested colony leaf (from a source colony maintained on citrus seedlings) into 20 to 22 sections (approximately 0.25 by 0.5 inches in size) and using forceps to place 1 section on each leaf cutting. As the section became desiccated the mites moved to the whole leaf and in 20 hours the sections were removed from the leaves for treatment application.
# Treatments were applied within 24 hours after inoculation by removing the cuttings from the test tube and submerging the leaves in the treatment solution for 5 seconds by hand and immediately returning the cutting to the test tube. […]
# as §2
Compound,average mortality rating ([3]; 125 ppm),average mortality rating ([3]; 250 ppm),average mortality rating ([3]; 500 ppm),average mortality rating ([3]; 750 ppm),average mortality rating ([3]; 1000 ppm),average mortality rating ([3]; 1500 ppm),insect mortality rating [4],insect mortality rating [5],average mortality rating ([11]; 0.025 ppm),average mortality rating ([11]; 0.05 ppm),average mortality rating ([11]; 0.1 ppm),acute mortality rating ([12]; 6.25 ppm),acute mortality rating ([12]; 12.5 ppm),acute mortality rating ([12]; 25 ppm),acute mortality rating ([12]; 50 ppm),acute mortality rating ([12]; 100 ppm),also measured
"O=[N+]([O-])c1cc(C(F)(F)F)cc2nc(C(F)(F)F)[nH]c12 [A, 2,6-bis(trifluoromethyl)-4-nitrobenzimidazole]",0 (0-10 percent),4,4,1,0 (0-10 percent),0 (0-10 percent),9 (91-100 percent mortality),7,–,–,–,–,–,–,–,–,"average mortality rating ([1]; 5 ppm): 3; average mortality rating ([1]; 10 ppm): 7; average mortality rating ([1]; 25 ppm): 7; average mortality rating ([2]; 250 ppm): 9 (91-100 percent mortality); average mortality rating ([2]; 500 ppm): 0 (0-10 percent); average mortality rating ([2]; 750 ppm): 0 (0-10 percent); average mortality rating ([2]; 1000 ppm): 0 (0-10 percent); insect mortality rating [6]: 9 (91-100 percent mortality); insect mortality rating [7]: 9 (91-100 percent mortality); insect mortality rating [8]: 8; insect mortality rating [9]: 9 (91-100 percent mortality); LD50 ([10]; in vivo, topical or ocular, male, read-out: Est. LD50): > 500 mg/kg; Est. LD50 ([10]; female): > 500 mg/kg"
"CCCCCCOC(=O)n1c(C(F)(F)F)nc2c([N+](=O)[O-])cc(C(F)(F)F)cc21 [E, n-hexyl 2,6-bis(trifluoromethyl)-4-nitro-1-benzimidazolecarboxylate]",–,–,–,–,–,–,5,5,0 (0-10%),1 (15-20%),8 (85-90%),3,2,5,9 (91-100 percent mortality),9 (91-100 percent mortality),"average mortality rating ([11]; 0.010 ppm): 0 (0-10%); acute mortality rating ([13]; 6.25 ppm, after 48 hours): 4; acute mortality rating ([13]; 12.5 ppm, after 48 hours): 8; acute mortality rating ([13]; 25 ppm, after 48 hours): 9 (91-100 percent mortality); acute mortality rating ([13]; 50 ppm, after 48 hours): 9 (91-100 percent mortality); acute mortality rating ([13]; 100 ppm, after 48 hours): 9 (91-100 percent mortality)"
"CC(C)OC(=O)n1c(C(F)(F)F)nc2c([N+](=O)[O-])cc(C(F)(F)F)cc21 [I, isopropyl 2,6-bis(trifluoromethyl)-4-nitro-1-benzimidazolecarboxylate]",1,4,5,2,1,0 (0-10 percent),–,–,–,–,–,3,2,8,8,8,"acute mortality rating ([13]; 6.25 ppm, after 24 hours): 5; acute mortality rating ([13]; 12.5 ppm, after 24 hours): 7; acute mortality rating ([13]; 25 ppm, after 24 hours): 9 (91-100 percent mortality); acute mortality rating ([13]; 50 ppm, after 24 hours): 9 (91-100 percent mortality); acute mortality rating ([13]; 100 ppm, after 24 hours): 9 (91-100 percent mortality)"
"mixture of methyl 2,6-bis(trifluoromethyl)-4-nitro-1-benzimidazolecarboxylate and methyl 2,5-bis(trifluoromethyl)-7-nitro-1-benzimidazolecarboxylate",–,–,–,–,–,–,–,–,0 (0-10%),0 (0-10%),4 (45-50%),–,–,–,–,–,–
